Data taken from US20240180929A1, “TREATMENT OF INFECTIOUS DISEASES USING BCL-2 FAMILY PROTEIN INHIBITORS” (TEXAS BIOMEDICAL RESEARCH INSTITUTE, priority 2020, published 2024).

What was measured:
[1] = test system: M.tb-lux; format: cell-based, Mycobacterium tuberculosis
[2] = test system: M.tb; assay: CFU assay, M.tb-infected murine lung macrophages; format: cell-based, Mycobacterium tuberculosis; conditions: 30 μM pan inhibitor, 2 days of treatment, MOI 1
[3] = test system: M.tb; assay: CFU assay, M.tb-infected murine BMDMs; format: cell-based, Mycobacterium tuberculosis; conditions: 30 μM pan inhibitor, 4 days of treatment, MOI 1
[4] = test system: M.tb; format: in vivo, BALB/c mice; conditions: isoniazid positive control, vs placebo
[5] = test system: M.tb; assay: CFU assay, M.tb-infected human in vitro TB granulomas; format: cell-based, Mycobacterium tuberculosis; conditions: 30 μM sabutoclax, 7 days

Question: `Cc1c(-c2c(-c3ccc(F)o3)sc3ncnc(O[C@H](Cc4ccccc4OCc4ccnn4CC(F)(F)F)C(=O)O)c23)ccc(OCCN2CCN(C)CC2)c1Cl` [S63845] was tested. Which “M.tb growth in human MDMs (luciferase)” value [1] did it give?
Answer: The value was “reduced M.tb growth in donor 1 after 4 days, but to a limited extent relative to the pan inhibitor Sabutoclax”.

Question: With `CC(C)c1ccccc1Cc1cc(C(=O)Nc2ccc(S(=O)(=O)c3ccccc3C(C)(C)C)cc2)c(O)c(O)c1O` [TW37] as the molecule, how does the “number of M.tb CFUs in lung macrophages” value [2] read?
Answer: The value was “reduction in the number of M.tb CFUs”.

Question: And the “M.tb CFUs normalized to DMSO control in BMDMs” value [3]?
Answer: The value was “reduction in the number of M.tb CFUs”.

Question: Which results are given for `NNC(=O)c1ccncc1` [isoniazid]?
Answer: M.tb growth in murine lungs (CFU) [4]: significantly reduced M.tb growth in murine lungs; M.tb growth in murine spleen (CFU) [4]: significantly reduced M.tb growth; acid fast stained M.tb in the mouse lung [4]: reduction in bacteria; lung inflammation (hematoxylin and eosin stain) [4]: reduced inflammation

Question: `Cc1cc2c(C(=O)NC[C@H](C)c3ccccc3)c(O)c(O)cc2c(O)c1-c1c(C)cc2c(C(=O)NC[C@H](C)c3ccccc3)c(O)c(O)cc2c1O` [sabutoclax] was tested. Which “number of M.tb CFUs in lung macrophages” value [2] did it give?
Answer: Its value is “reduction in the number of M.tb CFUs”.

Question: What about the “M.tb growth in human granulomas (CFU)” value [5] of the same molecule?
Answer: The value was “significant reduction in M.tb growth”.

Question: And the “M.tb CFUs normalized to DMSO control in BMDMs” value [3]?
Answer: Its value is “reduction in the number of M.tb CFUs”.
